Measured values taken from patent US8685436B2, “Use of hydroxyflavanones for masking bitter taste” (Symrise AG, priority 2001, dated 2014).
Counter-ions that a name gives are not always drawn.

What was measured:
[1] = Masking the bitter taste of a β-lactam antibiotic, difference testing and bitter intensity rating by 7 testers; assay type: in vivo
From the text: A solution of Faropenem Daloxate ([5R-[3(R*),5α,6α(R*)]]-6-(1-hydroxyethyl)-7-oxo-3-(tetrahydro-2-furanyl)-4-thia-1-azabicyclo[3.2.0]hept-2-ene-2-carboxylic acid (5-methyl-2-oxo-1,3-dioxol-4-yl)methyl ester, CAS No. 141702-36-5, 0.1% by weight in water, sample 1) and a mixture of Faropenem Daloxate+homoeriodictyol disodium salt (each 0.1% by weight in water, sample 2) were made up. A group of 7 testers were each given 3 samples for difference testing. 4 testers received sample 1 as a duplicate sample, 3 testers received sample 2 as a duplicate sample. The samples were tasted in differing orders. Of 7 testers, 7 correctly identified the individual sample. The average bitter intensity of sample 1 was rated 5, that of sample 2 was rated 2 (scale 1 to 5).

[2] = Debittering black tea, bitterness rated by an expert group; assay type: in vivo; conditions: Tea sample 2 + 0.05% homoeriodictyol disodium salt; scale 1 just perceptibly bitter, 5 very bitter; tea sample 2 alone rated 5
Description: Two different types of black tea were brewed using boiling water (3 g of tea to 100 ml, allowed to infuse for 3 min, filter) and were then tasted by an expert group. The bitterness was rated using a scale of 1 to 5 (1 just perceptibly bitter, 5 very bitter).

[3] = relatively high concentrations (450 ppm); cited from earlier work

COc1cc(C2CC(=O)c3c(O)cc(O)cc3O2)ccc1O (stereo not shown) [homoeriodictyol disodium salt, 2-(4-hydroxy-3-methoxyphenyl)-5,7-dihydroxychroman-4-one]
average bitter intensity (scale 1 to 5) ([1]; sample 2: Faropenem Daloxate + homoeriodictyol disodium salt, each 0.1% by weight in water): 2
Rating (1–5) of bitterness [2]: 2

Cc1oc(=O)oc1COC(=O)C1=C([C@H]2CCCO2)S[C@@H]2[C@@H]([C@@H](C)O)C(=O)N12 (relative stereo) [Faropenem Daloxate, [5R-[3(R*),5α,6α(R*)]]-6-(1-hydroxyethyl)-7-oxo-3-(tetrahydro-2-furanyl)-4-thia-1-azabicyclo[3.2.0]hept-2-ene-2-carboxylic acid (5-methyl-2-oxo-1,3-dioxol-4-yl)methyl ester]
average bitter intensity (scale 1 to 5) ([1]; sample 1: Faropenem Daloxate alone, 0.1% by weight in water): 5

COc1ccc(OC(C)C(=O)[O-])cc1.[Na+] (stereo not shown) [Lactisol, 2(-4-Methoxyphenoxy)propionic acid sodium salt]
bitter-reducing effect [3]: weak bitter-reducing effect
